In patent US20260035363A1, “COMPOUNDS AND METHODS OF USE THEREOF AS ANTIBACTERIAL AGENTS” (priority 2019, published 2026):
≈ marks a conversion by molar mass, not a printed value. Where two headings read alike, the source gives them in different places.

Tests used:
Format in all cases: cell-based
[1] = tested on: mitochondrial protein synthesis in HepG2 cells; experiment: Mitochondrial protein synthesis assay (COX-I to SDH-A ratio, In Cell ELISA); conditions: 4 days, ratio of COX-I to SDH-A levels, read-out: MPS IC50
Description: Mitochondrial Protein Synthesis Assay
Inhibition of mitochondrial protein synthesis was assessed in HepG2 cells by comparing the levels of two subunits of oxidative phosphorylation enzyme complexes, subunit I of Complex IV (COX-I) and the 70 kDa subunit of Complex II (SDH-A). COX-I is mitochondrial DNA encoded and SDH-A is nuclear DNA encoded. HepG2 cells were seeded in 96-well collagen coated plates at 8,000 cells per well and exposed to 2-fold serial dilutions of compounds from 100 μM to 6.25 μM. Microtiter plates were incubated for approximately 5 replication cycles (4 days) prior to assessment of protein levels using a kit as described by the manufacturer (ab110217 MitoBiogenesis In Cell ELISA Kit, Abcam, Cambridge, MA). Inhibition of mitochondrial protein synthesis was expressed as a ratio of COX-1 to SDH-A levels.

[2] = tested on: Mycobacterium tuberculosis (Mtb-GFP; H37Rv pMSP12::GFP); experiment: microbe, parasite or virus in culture; conditions: 168 h, pH 6.8, read-out: Mtb Glu MITC95, glucose carbon source, pH 6.8, 7-day growth, GFP fluorescence, lowest concentration inhibiting 95% of growth
[3] = tested on: Mycobacterium tuberculosis (Mtb-GFP; H37Rv pMSP12::GFP); experiment: microbe, parasite or virus in culture; conditions: 168 h, pH 6.8, read-out: Mtb Cho MITC95, cholesterol carbon source, pH 6.8, 7-day growth, GFP fluorescence, lowest concentration inhibiting 95% of growth

Compound	IC50 ([1]; Homo sapiens, HepG2, 96 h)	MIC [2]	MIC [3]	IC50 [1]
CC1(S(=O)(=O)c2ccc(-c3ccc(C4=NO[C@@H](Cn5ccnn5)C4)cc3F)cc2)CNC1 [Example 23, 1-({(5R)-3-[2-Fluoro-4′-(3-methylazetidine-3-sulfonyl)[1,1′-biphenyl]-4-yl]-4,5-dihydro-1,2-oxazol-5-yl}methyl)-1H-1,2,3-triazole]	16 µM	1.56 µM (≈ 0.711 µg/mL)	0.78 µM (≈ 0.355 µg/mL)	
CN=S1(=O)CCC(F)(c2c(F)cc(C3=NO[C@@H](Cn4ccnn4)C3)cc2F)CC1 (single isomer, unassigned) [Example 6]	> 100 µM	1.56 µM (≈ 0.667 µg/mL)	1.56 µM (≈ 0.667 µg/mL)	
CN1CC(CF)(S(=O)(=O)c2ccc(-c3ccc(C4=NO[C@@H](Cn5ccnn5)C4)cc3F)cc2)C1 [Example 25, 1-{[(5R)-3-{2-Fluoro-4′-[3-(fluoromethyl)-1-methylazetidine-3-sulfonyl][1,1′-biphenyl]-4-yl}-4,5-dihydro-1,2-oxazol-5-yl]methyl}-1H-1,2,3-triazole]	2.5 µM	0.19 µM (≈ 0.0926 µg/mL)	0.09 µM (≈ 0.0439 µg/mL)	
CN1CC(Oc2ccc(-c3c(F)cc(C4=NO[C@@H](Cn5ccnn5)C4)cc3F)cc2)C1 [Example 34, 1-{[(5R)-3-{2,6-Difluoro-4′-[(1-methylazetidin-3-yl)oxy][1,1′-biphenyl]-4-yl}-4,5-dihydro-1,2-oxazol-5-yl]methyl}-1H-1,2,3-triazole]	2.6 µM	0.09 µM (≈ 0.0383 µg/mL)	0.09 µM (≈ 0.0383 µg/mL)	
CN1CC(C)(C(F)(F)c2ccc(-c3ccc(C4=NO[C@@H](Cn5ccnn5)C4)cc3F)cc2)C1 [Example 10, 1-{[(5R)-3-{4′-[(1,3-Dimethylazetidin-3-yl)(difluoro)methyl]-2-fluoro[1,1′-biphenyl]-4-yl}-4,5-dihydro-1,2-oxazol-5-yl]methyl}-1H-1,2,3-triazole]	22 µM	0.19 µM (≈ 0.0865 µg/mL)	0.19 µM (≈ 0.0865 µg/mL)	
O=S1(=O)CCC(F)(c2c(F)cc(C3=NO[C@@H](Cn4ccnn4)C3)cc2F)CC1 [Example 1, 4-[2,6-Difluoro-4-[(5R)-5-(triazol-1-ylmethyl)-4,5-dihydroisoxazol-3-yl]phenyl]-4-fluoro-thiane 1,1-dioxide]	93 µM	1.2 µM (≈ 0.497 µg/mL)	1.2 µM (≈ 0.497 µg/mL)	
Fc1cc(C2=NO[C@@H](Cn3ccnn3)C2)ccc1-c1ccn2c(C3(F)CNC3)nnc2c1 [Example 52, 3-(3-Fluoroazetidin-3-yl)-7-(2-fluoro-4-{(5R)-5-[(1H-1,2,3-triazol-1-yl)methyl]-4,5-dihydro-1,2-oxazol-3-yl}phenyl)[1,2,4]triazolo [4.3-a]pyridine]	27 µM	0.78 µM (≈ 0.34 µg/mL)	0.78 µM (≈ 0.34 µg/mL)	
CN1CC(C)(S(=O)(=O)c2ccc(-c3ccc(C4=NO[C@@H](CO)C4)cc3F)cc2)C1 [Example 21, {(5R)-3-[4′-(1,3-Dimethylazetidine-3-sulfonyl)-2-fluoro[1,1′-biphenyl]-4-yl]-4,5-dihydro-1,2-oxazol-5-yl}methanol]	> 100 µM	1.56 µM (≈ 0.653 µg/mL)	1.56 µM (≈ 0.653 µg/mL)	
CN1CC(S(=O)(=O)c2ccc(-c3ccc(C4=NO[C@@H](Cn5ccnn5)C4)cc3F)cc2)C1 [Example 32, 1-({(5R)-3-[2-Fluoro-4′-(1-methylazetidine-3-sulfonyl)[1,1′-biphenyl]-4-yl]-4,5-dihydro-1,2-oxazol-5-yl}methyl)-1H-1,2,3-triazole]	0.77 µM	0.065 µM (≈ 0.0296 µg/mL)	0.09 µM (≈ 0.041 µg/mL)	
N=S1(=O)CCC(F)(c2c(F)cc(C3=NO[C@@H](Cn4ccnn4)C3)cc2F)CC1 (stereo partly drawn) [Example 38, 4-(2,6-Difluoro-4-{(5R)-5-[(1H-1,2,3-triazol-1-yl)methyl]-4,5-dihydro-1,2-oxazol-3-yl}phenyl)-4-fluoro-1-imino-1λ^6-thian-1-one]		0.78 µM (≈ 0.322 µg/mL)	1.56 µM (≈ 0.645 µg/mL)	44 µM
COC(=O)NC[C@H]1CC(c2cc(F)c(N3CCS(=O)(=O)CC3)c(F)c2)=NO1 [Example 4, Methyl N-[[(5R)-3-[4-(1,1-dioxo-1,4-thiazinan-4-yl)-3,5-difluoro-phenyl]-4,5-dihydroisoxazol-5-yl]methyl]carbamate]	> 100 µM	3.12 µM (≈ 1.26 µg/mL)	3.12 µM (≈ 1.26 µg/mL)	
COC(=O)NC[C@H]1CC(c2ccc(-c3ccc(S(=O)(=O)C4(C)CN(C)C4)cc3)c(F)c2)=NO1 [Example 14, Methyl N-[[(5R)-3-[4-[4-(1,3-dimethylazetidin-3-yl)sulfonylphenyl]-3-fluoro-phenyl]-4,5-dihydroisoxazol-5-yl]methyl]carbamate]	42 µM	0.12 µM (≈ 0.0571 µg/mL)	0.12 µM (≈ 0.0571 µg/mL)	
CN1CC(C)(S(=O)(=O)c2ccc(-c3ccc(C4=NO[C@@H](CNC(=O)C5CC5)C4)cc3F)cc2)C1 [Example 49, N-({(5R)-3-[4′-(1,3-Dimethylazetidine-3-sulfonyl)-2-fluoro[1,1′-biphenyl]-4-yl]-4,5-dihydro-1,2-oxazol-5-yl}methyl) cyclopropanecarboxamide]	51 µM	0.15 µM (≈ 0.0728 µg/mL)	0.17 µM (≈ 0.0825 µg/mL)	
CN1CC(F)(C(F)(F)c2ccc(-c3ccc(C4=NO[C@@H](Cn5ccnn5)C4)cc3F)cc2)C1 [Example 15, (5R)-3-[4-[4-[Difluoro-(3-fluoro-1-methyl-azetidin-3-yl)methyl]phenyl]-3-fluoro-phenyl]-5-(triazol-1-ylmethyl)-4,5-dihydroisoxazole]	4.3 µM	0.035 µM (≈ 0.0161 µg/mL)	0.055 µM (≈ 0.0253 µg/mL)	
Cc1cn(C[C@H]2CC(c3cc(F)c(C4(F)CCS(=O)(=O)CC4)c(F)c3)=NO2)nn1 [Example 54, 4-(2,6-Difluoro-4-{(5R)-5-[(4-methyl-1H-1,2,3-triazol-1-yl)methyl]-4,5-dihydro-1,2-oxazol-3-yl}phenyl)-4-fluoro-1λ^6-thiane-1,1-dione]	45 µM	0.78 µM (≈ 0.334 µg/mL)	1.17 µM (≈ 0.501 µg/mL)	
CN1CC(C)(S(=O)(=O)c2ccc(-c3c(F)cc(C4=NO[C@@H](Cn5ccnn5)C4)cc3F)cc2)C1 [Example 22, 1-({(5R)-3-[4′-(1,3-Dimethylazetidine-3-sulfonyl)-2,6-difluoro[1,1′-biphenyl]-4-yl]-4,5-dihydro-1,2-oxazol-5-yl}methyl)-1H-1,2,3-triazole]	25 µM	0.29 µM (≈ 0.141 µg/mL)	0.49 µM (≈ 0.239 µg/mL)	
Fc1cc(C2=NO[C@@H](Cn3ccnn3)C2)ccc1-c1ccn2c(C3CNC3)nnc2c1 [Example 37, 3-(Azetidin-3-yl)-7-(2-fluoro-4-{(5R)-5-[(1H-1,2,3-triazol-1-yl)methyl]-4,5-dihydro-1,2-oxazol-3-yl}phenyl)[1,2,4]triazolo[4,3-a]pyridine]	65 µM	0.78 µM (≈ 0.326 µg/mL)	1.56 µM (≈ 0.653 µg/mL)	
CN1CC(S(=O)(=O)c2ccc(-c3ccc(C4=NO[C@@H](CO)C4)cc3F)cc2)C1 [Example 13, [(5R)-3-[3-Fluoro-4-[4-(1-methylazetidin-3-yl)sulfonylphenyl]phenyl]-4,5-dihydroisoxazol-5-yl]methanol]	24 µM	1 µM (≈ 0.404 µg/mL)	1.2 µM (≈ 0.485 µg/mL)	
COC(=O)NC[C@H]1CC(c2cc(F)c(C3(F)CCS(=O)(=O)CC3)c(F)c2)=NO1 [Example 2, Methyl N-[[(5R)-3-[3,5-difluoro-4-(4-fluoro-1,1-dioxo-thian-4-yl)phenyl]-4,5-dihydroisoxazol-5-yl]methyl]carbamate]	> 100 µM	1.6 µM (≈ 0.673 µg/mL)	1.6 µM (≈ 0.673 µg/mL)	
O=S1(=O)CCC(F)(c2c(F)cc(C3=NO[C@@H](Cn4cc(CO)nn4)C3)cc2F)CC1 [Example 40, 4-{2,6-Difluoro-4-[(5R)-5-{[4-(hydroxymethyl)-1H-1,2,3-triazol-1-yl]methyl}-4,5-dihydro-1,2-oxazol-3-yl]phenyl}-4-fluoro-1λ^6-thiane-1,1-dione]	> 100 µM	1.56 µM (≈ 0.693 µg/mL)	1.56 µM (≈ 0.693 µg/mL)	
CS(=O)(=O)NC[C@H]1CC(c2cc(F)c(C3(F)CCS(=O)(=O)CC3)c(F)c2)=NO1 [Example 53, N-({(5R)-3-[3,5-Difluoro-4-(4-fluoro-1,1-dioxo-1λ^6-thian-4-yl)phenyl]-4,5-dihydro-1,2-oxazol-5-yl}methyl) methanesulfonamide]	> 100 µM	6.25 µM (≈ 2.75 µg/mL)	6.25 µM (≈ 2.75 µg/mL)	
CN=S1(=O)CCC(F)(c2c(F)cc(C3=NO[C@@H](CNC(C)=O)C3)cc2F)CC1 (stereo partly drawn) [Example 29, N-{[(5R)-3-{3,5-Difluoro-4-[4-fluoro-1-(methylimino)-1-oxo-1λ^6-thian-4-yl]phenyl}-4,5-dihydro-1,2-oxazol-5-yl]methyl}acetamide]	> 100 µM	1.56 µM (≈ 0.651 µg/mL)	1.56 µM (≈ 0.651 µg/mL)	
CS(=O)(=O)NC[C@H]1CC(c2ccc(-c3ccc(S(C)(=O)=O)cc3)c(F)c2)=NO1 [Example 19, N-({(5R)-3-[2-Fluoro-4′-(methanesulfonyl)[1,1′-biphenyl]-4-yl]-4,5-dihydro-1,2-oxazol-5-yl}methyl) methanesulfonamide]	> 100 µM	6.25 µM (≈ 2.67 µg/mL)	9.38 µM (≈ 4 µg/mL)	
O=S1(=O)CCC(F)(c2c(F)cc(C3=NO[C@@H](CO)C3)cc2F)CC1 [Example 47, 4-{2,6-Difluoro-4-[(5R)-5-(hydroxymethyl)-4,5-dihydro-1,2-oxazol-3-yl]phenyl}-4-fluoro-1λ^6-thiane-1,1-dione]	> 100 µM	6.25 µM (≈ 2.27 µg/mL)	6.25 µM (≈ 2.27 µg/mL)	
